In ChEMBL document CHEMBL1147204, “Synthesis and antimicrobial evaluation of some new thiazole, thiazolidinone and thiazoline derivatives starting from 1-chloro-3,4-dihydronaphthalene-2-carboxaldehyde” (2007):

Assays:
Type in all cases: functional
[1] = system: Priestia megaterium; experiment: Antimicrobial activity against Bacillus megaterium by agar diffusion technique
[2] = system: Bacillus subtilis; experiment: Antimicrobial activity against Bacillus subtilis by agar diffusion technique
[3] = system: Aspergillus oryzae; experiment: Antifungal activity against Aspergillus oryzae by agar diffusion technique
[4] = system: Aspergillus niger; experiment: Antifungal activity against Aspergillus niger by agar diffusion technique
[5] = system: Escherichia coli; experiment: Antimicrobial activity against Escherichia coli by agar diffusion technique
[6] = system: Aspergillus niger; experiment: Antifungal activity against Aspergillus niger at 25 ug/mL by agar diffusion technique; conditions: read-out: IZ
[7] = system: Aspergillus oryzae; experiment: Antifungal activity against Aspergillus oryzae at 25 ug/mL by agar diffusion technique; conditions: read-out: IZ
[8] = system: Escherichia coli; experiment: Antimicrobial activity against Escherichia coli at 25 ug/mL by agar diffusion technique; conditions: read-out: IZ
[9] = system: Priestia megaterium; experiment: Antimicrobial activity against Bacillus megaterium at 25 ug/mL by agar diffusion technique; conditions: read-out: IZ
[10] = system: Bacillus subtilis; experiment: Antimicrobial activity against Bacillus subtilis at 25 ug/mL by agar diffusion technique; conditions: read-out: IZ

Compound	inhibition zone (IZ) [1] [mm]	inhibition zone (IZ) [2] [mm]	inhibition zone (IZ) [3] [mm]	inhibition zone (IZ) [4] [mm]	inhibition zone (IZ) [5] [mm]	zone of inhibition at 25 µg/mL [6] [mm]	zone of inhibition at 25 µg/mL [7] [mm]	zone of inhibition at 25 µg/mL [8] [mm]	zone of inhibition at 25 µg/mL [9] [mm]	zone of inhibition at 25 µg/mL [10] [mm]
Cc1nc(N/N=C/C2=C(Cl)c3ccccc3CC2)sc1/N=N/c1ccccc1	86	81	89	84	60					
O=C1/C(=C\c2ccc(Cl)cc2)S/C(=N\N=C\C2=C(Cl)c3ccccc3CC2)N1c1ccccc1	43	42	69	58						
Cc1csc(N/N=C/C2=C(Cl)c3ccccc3CC2)n1	60	55	75	72	40					
OC(Cn1cncn1)(Cn1cncn1)c1ccc(F)cc1F [FLUCONAZOLE]						22	16			
Nc1sc(=S)n(-c2ccccc2)c1C(=O)N/N=C/C1=C(Cl)c2ccccc2CC1	82	89	75	64	60					
O=C1N=C(N/N=C/C2=C(Cl)c3ccccc3CC2)S/C1=C/c1ccc(Cl)cc1	34	34	74	75	25					
O=C1CS/C(=N\N=C\C2=C(Cl)c3ccccc3CC2)N1c1ccccc1	55	66	71	63						
COc1ccc(/N=N/c2sc(N/N=C/C3=C(Cl)c4ccccc4CC3)nc2-c2ccccc2)cc1	84	90	86	75	55					
O=C1CSC(N/N=C/C2=C(Cl)c3ccccc3CC2)=N1	40	35	78	66	30					
O=C(N[C@H](CO)[C@H](O)c1ccc([N+](=O)[O-])cc1)C(Cl)Cl [CHLORAMPHENICOL]						35		48	55	30
CC1(C)S[C@@H]2[C@H](NC(=O)[C@H](N)c3ccccc3)C(=O)N2[C@H]1C(=O)O [AMPICILLIN]						33		26	29	40
CCOC(=O)C1SC(N/N=C/C2=C(Cl)c3ccccc3CC2)=NC1=O (configuration not stated)	35	42	73	69						
ClC1=C(/C=N/Nc2nc(-c3ccccc3)cs2)CCc2ccccc21	68	65	79	77	56					
COc1ccc(/N=N/c2sc(N/N=C/C3=C(Cl)c4ccccc4CC3)nc2C)cc1	85	87	86	80	50					
O=c1c2c(ncn1/N=C/C1=C(Cl)c3ccccc3CC1)sc(=S)n2-c1ccccc1	92	95	86	78	85					
ClC1=C(/C=N/Nc2nc(-c3ccccc3)c(/N=N/c3ccccc3)s2)CCc2ccccc21	79	85	82	79	49					
